Assay results from patent US9617311B2, “Use of PEDF-derived polypeptides for promoting stem cells proliferation and wound healing” (Mackay Memorial Hospital, priority 2011, dated 2017).

Assays:
[1] = system: limbal epithelial stem cells (LSCs); assay: In vitro LSC proliferation, BrdU pulse-labeling with ΔNp63α immunostaining; format: cell-based, New Zealand white rabbits; conditions: BrdU 2 hours; for percentage of BrdU and ΔNp63α-double positive cells per total ΔNp63α-positive cells: 25 nM peptide or 4.5 nM PEDF in medium, control medium 3.0±0.5%, mean±SEM
Description: LSCs were isolated from six-month-old New Zealand white rabbits and used for cell-suspension culture in accordance with the method previously described by Cheng et al. (The growth-promoting effect of KGF on limbal epithelial cells is mediated by upregulation of DeltaNp63alpha through the p38 pathway. J Cell Sci 2009; 122 (Pt 24): 4473-4480) and Wang et al. (Importin 13 serves as a potential marker for corneal epithelial progenitor cells. Stem Cells 2009; 27: 2516-2526) with a slight modification. Rabbit limbal tissues were washed in PBS containing 100 U/ml penicillin and 50 μg/ml gentamicin. After carefully removing the iris, and excessive sclera, the limbal rings were exposed to dispase II (1.2 IU/ml in Hanks' balanced salt solution free of Mg^2+ and Ca^2+) at 4° C. for 16 hours. The loosened epithelial sheets were removed with a cell scraper and separated into single cells by enzymatic digestion (0.05% trypsin, and 0.01% EDTA) for 15 min at 37° C. with gentle shaking and transferred to a stop medium (9 ml of HEPES-buffered DMEM containing 10% FBS). Cells were then collected by centrifugation (400×g for 5 min).
About 1×10^5 cells were seeded on each wells of a 6-well plate and incubated in a DMEM/Ham's F-12 basal medium (10 mM HEPES, 5 ng/ml human EGF, 1% SITE liquid medium, antibiotic-antimicotic solutions, 0.5% DMSO and 0.5 μg/ml hydrocortisone) supplemented with 10% FBS for 2 days, and then shifted to a basal medium or basal medium containing 4.5 nM PEDF, 25 nM 39-mer, 25 nM 34-mer, 25 nM 29-mer, 25 nM 25-mer, 25 nM 20-mer, 25 nM 18-mer, 25 nM Mo 29-mer or 25-nM Mo 20-mer. The cells were continued cultivated at 37° C. under 5% CO2 for another 3 days until they reached confluence (passage 0). LSCs were co-cultured with MMC-treated NIH-3T3 fibroblast feeder cells located within trans-well (0.4 μm pore, BD Biosciences, Bedford, Mass.). For passage purpose, near-confluent cells were harvested again by enzymatic treatment (i.e., 0.25% trypsin), and then 1×10^5 subcultured cells were further cultured in the respective medium, and proliferative capacity of cells was compared every 4 days after continuously culture-subculture (passage).
De-paraffinized tissue sections or 4% paraformaldehyde-fixed LSCs were blocked with 10% goat serum and 5% BSA in PBST (PBS containing 0.1% Tween-20) for 1 hour. Staining was done using primary antibodies against ΔNp63α (1:150 dilution), BrdU (1:250 dilution), and keratin-3 (1:250 dilution) at 37° C. for 2 hours, followed by incubation with the appropriate rhodamine- or FITC-conjugated donkey IgG (1:500 dilution) for 1 hour at RT. Nuclei were identified by counterstaining with Hoechst 33258 for 7 minutes. Images were captured using a Zeiss epifluorescence microscope with a CCD camera and photographs were taken by using the Axiovert software.
2×10^5 limbal cells (the 1st passage) were seeded at a slide coated with FNC COATING MIX® solution (Athena Enzyme Systems, Baltimore, Md.) and incubated with a culture medium for one day. BrdU (final, 10 μM) was added to the culture for 2 hours. After being fixed with 4% paraformaldehyde, cells were exposed to cold methanol for 2 minutes, and then treated with 1 N HCl at RT for 1 hour before performing immunofluorescence. For animal study, BrdU was reconstituted in DMSO as stock (80 mM). 10 μl of BrdU mixed with 90 μl of PBS was intraperitoneally injected into mouse 3 hours prior to euthanasia. DNA synthesis was assessed by BrdU labeling with anti-BrdU antibodies.

[2] = system: hair follicle stem cells (HFSCs); assay: In vitro HFSC proliferation, BrdU pulse-labeling with Lgr6 immunostaining; format: cell-based, Human; conditions: 50 nM peptide or 4.5 nM PEDF in medium; BrdU 2 hours; control 31.9±5.6%
Method: FIG. 5A provides immunofluorescence microscopy photographs and FIG. 5B is a histogram, and together, they illustrate the in vitro proliferation of HFSCs from treatment groups according to one example of the present disclosure. HFSC proliferation was determined by BrdU labeling for 2 hours. HFSCs (Lgr6, green) and BrdU (red) were detected by immunofluorescence microscopy (original magnification, ×1000). Twenty randomly selected fields in each group were photographed, and the percentage of BrdU and Lgr6-double positive cells (pale pink) per total Lgr6-positive cells was calculated. *P<0.001 versus untreated cells.
Human hair follicles were collected from hairs of healthy donors. The follicles were dissected with tweezers under microscope and most of adipose and connective tissue was removed. The bulge region of hair follicle under the sebaceous gland was cut and then bulge fragments (including central isthmus) were transferred into a 35-mm dish containing 1 ml of collagenase A (1 mg/ml; Roche) and incubated for 1.5 hours at 37° C. to digest the collagen capsule. Subsequently, the bulge fragments were transferred into a fresh cell culture dish containing dispase II (2.4 U/ml)/0.05% trypsin and further incubated for 1.5 hours at 37° C. to obtain a single cell suspension.
After mechanical dissection and enzymatic digestion, the suspended bulge cells isolated from five bulge fragments were seeded into a well of 12-well culture plate and incubated with the basal medium for 5 days to facilitate cell adhesion. The basal medium contains four parts Gibco calcium-free Dulbecco's modified Eagle's medium (DMEM) and one part Ham's F12 medium (calcium concentration reached about 0.25 mM) and supplemented with 10% FBS, 10 ng/ml human epidermal growth factor, 500 mg/I L-glutamine, 0.2% bovine pituitary extract, […] hydrocortisone, 1% ITSE as well as antibiotic-antimicotic solutions. Cultivation method was similar to that of Blazejewska et al. (Stem Cells 2009; 27:642). After 5 days of incubation, cells were cultured in the serum-free basal medium or basal medium containing 4.5 nM PEDF, 50 nM 29-mer, or 50 nM 20-mer, until near confluence (about 2 weeks; passage 0). The medium was changed every 2 to 3 days. The bulge cells were co-cultured with 3T3 fibroblast feeder cells. For passage, near-confluent cells were harvested by enzymatic treatment (i.e., 0.25% trypsin) for 5 min at 37° C. Approximately 1×10^5 human bulge cells were transferred to a new dish and allowed to grow for 14 days to near confluence (passage 1). […]

Sequence | percentage of BrdU and ΔNp63α-double positive cells per total ΔNp63α-positive cells [1] [%] | percentage of BrdU and Lgr6-double positive cells per total Lgr6-positive cells [2] [%] | enhanced LSC proliferation versus control medium ([1]; 25 nM peptide in medium)
SLGAEQRTESIIHRALYYDL [20-mer, synthetic peptide identical to residues 11-30 of the 39-mer] | 31.8±1.7 | 79.5±2.6 | –
SLGAEQRTESIIHRALYYDLISSPDIHGT [29-mer, short synthetic PEDF peptide derived from the 39-mer] | 33.9±2.6 | 86.2±3.9 | –
SLGAEHRTESVIHRALYYDL [Mo 20-mer, synthetic peptide derived from mouse PEDF] | 26.3±2.2 | – | –
EQRTESIIHRALYYDLIS [18-mer] | – | 30.1±6.3 | enhanced proliferation was not observed
SLGAEHRTESVIHRALYYDLITNPDIHST [Mo 29-mer, synthetic peptide derived from mouse PEDF] | 27.1±1.8 | – | –
